According to patent EP2979694B1, “Dimercaptosuccinic acid for the treatment of multidrug resistant bacterial infections” (priority 2014, dated 2016):

Columns and labels:
NDM-1 = molecular target: T1, NDM-1 (Klebsiella pneumoniae, UniProt C7C422); test: Inhibition of purified NDM-1 hydrolytic activity, UV spectrophotometry; assay type: biochemical
T1 construct: made in house
From the text: (§1) Inhibitory properties of DMSA and EDTA were also compared in-vitro by UV spectrophotometry using purified NDM-1 protein and carbapenems as substrates. E. coli TOP10 pCR2.1-(PNDM-1-blaNDM-1-bleMBL), expressing the blaNDM-1 gene with its original promoter (PNDM-1) cloned into a pTOPO multicopy plasmid and expressed in E. coli TOP10 reference strain (Dortet et al. 2012) was used for preliminary assays in order to determine the most efficient of DMSA being active against NDM producers.
Inhibition of NDM-1 by DMSA was assessed on a purified fraction of NDM-1, obtained as previously described for NDM-4 (Nordmann et al. 2012) with imipenem 100 µM as substrate.

Kp C3 KPC-3 = test: MIC of meropenem with or without DMSA or MSA (negative control strain, non-metallo carbapenemase KPC); assay type: cell-based, K. pneumoniae; conditions: Kp C3 KPC-3 (negative control); DMSA or MSA at 3 mM
Method: (§2) MICs of meropenem with of without DMSA or MSA Table 3
(§3) DMSA and MSA were used at a concentration of 3 mM each. A negative control was used as strain KpC3 producing the non- metallo carbapenemase KPC

[1] = system: E. coli TOP10 pCR2.1-(PNDM-1-blaNDM-1-bleMBL); test: MIC of imipenem, broth microdilution in zinc-complemented M9CA minimum medium; assay type: cell-based
From the text: as §1
MICs of imipenem was determined for E. coli TOP10 pCR2.1-(PNDM-1-blaNDM-1-bleMBL) in the presence of 0, 0.01, 0.1 or 1 mg/ml of Ca-EDTA or DMSA by using the broth microdilution method in zinc-complemented M9CA minimum medium (SD7025, Euromedex, France). M9CA minimal medium was used preferably to the standard Mueller Hinton broth in order to determine precisely the concentration of zinc in broth (ZnSO4, Sigma Aldrich, France, 5µg/ml (final concentration).
(§4) A 100 mM DMSA stock solution (Sigma Aldrich, France) (pH 5.0) was prepared in 0.2 M NaOH as recommended (Maiorino et al. 1990) and pH was neutralized to pH 7.0 with NaHCO3 Na2Ca-EDTA (Sigma Aldrich, France) dissolved in water.

IMP-1 = IMP-1 (Serratia marcescens, UniProt P52699); conditions: 20 microM; cited from earlier work
E. coli VIM KOW7 = test: MIC of meropenem with or without DMSA or MSA; assay type: cell-based; conditions: DMSA or MSA at 3 mM
Method: (§5) DMSA reduced the MICs of ertapenem for bacteria producing NDM-1 though the synergy effect was weaker than that observed for bacteria producing IMP and VIM-type MBLs.
as §2, §3

E. coli NDM FEK = test: MIC of meropenem with or without DMSA or MSA; assay type: cell-based; conditions: DMSA or MSA at 3 mM
Method: as §5, §2, §3

E. coli NDM pCR2.1 = test: MIC of meropenem with or without DMSA or MSA; assay type: cell-based; conditions: E. coli NDM pCR2.1; DMSA or MSA at 3 mM
Method: as §5, §2, §3

E. coli NDM CHAN = test: MIC of meropenem with or without DMSA or MSA; assay type: cell-based; conditions: DMSA or MSA at 3 mM
Method: as §5, §2, §3

NDM-like producers = test: MIC of carbapenems, summary over NDM producers (n=10); assay type: cell-based; conditions: DMSA at 3 mM
Method: (§6) The strains were as follows: VIM producers (n=10), IMP producers (n=9), NDM-1 producers (n=10). The selected concentration of DMSA was 10-fold (0.3 mM) and 100-fold (3 mM) that of the human peak serum concentration after oral administration (Asiedu et al;, 1995), and that of Ca-EDTA was assayed at the fixed concentration of 0.2 mM (Table 2). The MICs of carbapenems varied widely among isolates producing a same carbapenemase type. DMSA at 3 mM lowered the MICs of imipenem and ertapenem of IMP-like producers (100% of the tested isolates), and VIM-like producers (70 to 80 % of the tested isolates). […]

Kp VIM KOW1 = test: MIC of meropenem with or without DMSA or MSA; assay type: cell-based, K. pneumoniae; conditions: DMSA or MSA at 3 mM
Method: as §2, §3

Kp NDM IND = test: MIC of meropenem with or without DMSA or MSA; assay type: cell-based, K. pneumoniae; conditions: DMSA or MSA at 3 mM
Method: as §2, §3

Kp NDM KIE = test: MIC of meropenem with or without DMSA or MSA; assay type: cell-based, K. pneumoniae; conditions: DMSA or MSA at 3 mM
Method: as §2, §3

[2] = after a single oral dose of DMSA (10 mg); cited from earlier work
IMP-like producers = test: MIC of carbapenems, summary over IMP producers (n=9); assay type: cell-based
Method: as §6

K.p. 6852 = test: MIC of carbapenems with or without DMSA; assay type: cell-based, K. pneumoniae; conditions: K.p. 6852, IMP-1 + SHV-5; no DMSA
Method: (§7) Minimum inhibitory concentrations (MICs) of carbapenems were determined in-vitro with strains (reference and clinical) producing the three main types of class B carbapenemases which are IMP, VIM and NDM, with or without EDTA and DMSA.
(§8) MICs of imipenem was determined for E. coli TOP10 pCR2.1-(PNDM-1-blaNDM-1-bleMBL) in the presence of 0, 0.01, 0.1 or 1 mg/ml of Ca-EDTA or DMSA by using the broth microdilution method in zinc-complemented M9CA minimum medium (SD7025, Euromedex, France).
as §4
(§9) The strains were as follows: VIM producers (n=10), IMP producers (n=9), NDM-1 producers (n=10). The selected concentration of DMSA was 10-fold (0.3 mM) and 100-fold (3 mM) that of the human peak serum concentration after oral administration (Asiedu et al;, 1995), and that of Ca-EDTA was assayed at the fixed concentration of 0.2 mM (Table 2). […]

K.p. TAW = test: MIC of carbapenems with or without DMSA; assay type: cell-based, K. pneumoniae; conditions: IMP-8 + SHV-5, no DMSA
Method: as §7, §8, §4, §9

K.p. ROUM = test: MIC of carbapenems with or without DMSA; assay type: cell-based, K. pneumoniae; conditions: VIM, no DMSA
Method: as §7, §8, §4, §9

K.p. 0709124 = test: MIC of carbapenems with or without DMSA; assay type: cell-based, K. pneumoniae; conditions: K.p. 0709124, IMP-1b + TEM-15; no DMSA
Method: as §7, §8, §4, §9

E. cloacae 1008183 = test: MIC of carbapenems with or without DMSA; assay type: cell-based; conditions: E. cloacae 1008183, IMP-1; no DMSA
Method: as §7, §8, §4, §9

E. coli 0404018 = test: MIC of carbapenems with or without DMSA; assay type: cell-based; conditions: E. coli 0404018, VIM-1 + CMY-6; no DMSA
Method: as §7, §8, §4, §9

E. coli JAP = test: MIC of carbapenems with or without DMSA; assay type: cell-based; conditions: IMP-1, no DMSA
Method: as §7, §8, §4, §9

E. coli 162 = test: MIC of carbapenems with or without DMSA; assay type: cell-based; conditions: E. coli 162, NDM-5 + TEM-1 +CTX-M-15; no DMSA
Method: as §7, §8, §4, §9

E. coli 405 = test: MIC of carbapenems with or without DMSA; assay type: cell-based; conditions: E. coli 405, NDM-5 + TEM-1 +CTX-M-15; no DMSA
Method: as §7, §8, §4, §9

E. coli DIH = test: MIC of carbapenems with or without DMSA; assay type: cell-based; conditions: VIM-19, no DMSA
Method: as §7, §8, §4, §9

E. coli IR5 = test: MIC of carbapenems with or without DMSA; assay type: cell-based; conditions: E. coli IR5, NDM-1 + TEM-1 +CTX-M-15; no DMSA
Method: as §7, §8, §4, §9

E. coli COUP = test: MIC of carbapenems with or without DMSA; assay type: cell-based; conditions: NDM-7 + OXA-1 +CTX-M-15, no DMSA
Method: as §7, §8, §4, §9

E. coli BOUN = test: MIC of carbapenems with or without DMSA; assay type: cell-based; conditions: NDM-4 + OXA-1, no DMSA
Method: as §7, §8, §4, §9

E. cloacae 396715 = test: MIC of carbapenems with or without DMSA; assay type: cell-based; conditions: E. cloacae 396715, VIM-1; no DMSA
Method: as §7, §8, §4, §9

E. coli 1108013 = test: MIC of carbapenems with or without DMSA; assay type: cell-based; conditions: E. coli 1108013, IMP-1 + TEM-1; no DMSA
Method: as §7, §8, §4, §9

E. coli MAD = test: MIC of carbapenems with or without DMSA; assay type: cell-based; conditions: VIM-1 + CTX-M-3, no DMSA
Method: as §7, §8, §4, §9

E. cloacae 1008029 = test: MIC of carbapenems with or without DMSA; assay type: cell-based; conditions: E. cloacae 1008029, VIM-1 + CTX-M-3; no DMSA
Method: as §7, §8, §4, §9

E. coli IBIS = test: MIC of carbapenems with or without DMSA; assay type: cell-based; conditions: VIM-4, no DMSA, unit assumed
Method: as §7, §8, §4, §9

E. cloacae 1008085 = test: MIC of carbapenems with or without DMSA; assay type: cell-based; conditions: E. cloacae 1008085, IMP-1; no DMSA
Method: as §7, §8, §4, §9

E. coli 1008077 = test: MIC of carbapenems with or without DMSA; assay type: cell-based; conditions: E. coli 1008077, VIM-1 + TEM-3; no DMSA
Method: as §7, §8, §4, §9

E. cloacae 1008186 = test: MIC of carbapenems with or without DMSA; assay type: cell-based; conditions: E. cloacae 1008186, IMP-1; no DMSA
Method: as §7, §8, §4, §9

E. cloacae TAW = test: MIC of carbapenems with or without DMSA; assay type: cell-based; conditions: IMP-8, no DMSA
Method: as §7, §8, §4, §9

Chain of IMP-1 (P52699 19-246 limits assumed): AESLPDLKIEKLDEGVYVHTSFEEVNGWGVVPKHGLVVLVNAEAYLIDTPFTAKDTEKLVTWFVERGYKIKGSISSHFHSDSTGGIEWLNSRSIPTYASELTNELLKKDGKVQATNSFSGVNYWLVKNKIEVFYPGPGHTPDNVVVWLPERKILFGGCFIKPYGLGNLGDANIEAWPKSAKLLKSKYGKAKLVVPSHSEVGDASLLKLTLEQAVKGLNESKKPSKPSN
T1 sequence (C7C422 29-270, looked up): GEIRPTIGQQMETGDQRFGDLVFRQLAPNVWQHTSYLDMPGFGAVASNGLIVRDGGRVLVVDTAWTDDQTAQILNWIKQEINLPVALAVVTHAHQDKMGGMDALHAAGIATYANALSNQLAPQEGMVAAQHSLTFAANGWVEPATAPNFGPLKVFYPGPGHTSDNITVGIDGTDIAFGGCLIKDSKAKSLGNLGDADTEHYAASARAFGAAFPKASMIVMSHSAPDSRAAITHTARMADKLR

SMILES: O=C(O)[C@@H](S)[C@@H](S)C(=O)O [DMSA, meso-2,3-dimercaptosuccinic acid]
- IC50 (NDM-1): 1000 µM
- MIC of meropenem (Kp C3 KPC-3): > 32 µg/mL
- MIC of imipenem ([1]; DMSA 0 mg/ml (imipenem alone)): 12 µg/mL
- MIC of imipenem ([1]; DMSA 0.01 mg/ml): 12 µg/mL
- MIC of imipenem ([1]; DMSA 0.1 mg/ml): 12 µg/mL
- MIC of imipenem ([1]; DMSA 1 mg/ml): 0.2 µg/mL
- inhibition of IMP-1 (IMP-1): inhibit
- MIC of meropenem (E. coli VIM KOW7): 0.25 µg/mL
- MIC of meropenem (E. coli NDM FEK): 4 µg/mL
- MIC of meropenem (E. coli NDM pCR2.1): 8 µg/mL
- MIC of meropenem (E. coli NDM CHAN): 2 µg/mL
- effect on the MIC values of imipenem (NDM-like producers): did not significantly affect
- tested isolates for which the MICs of ertapenem were reduced (NDM-like producers): 50%
- MIC of meropenem (Kp VIM KOW1): 32 µg/mL
- MIC of meropenem (Kp NDM IND): 4 µg/mL
- MIC of meropenem (Kp NDM KIE): 0.5 µg/mL
- plasma concentrations of DMSA [2]: ca. 100 µM
- effect on the MICs of carbapenems (IMP-like producers; DMSA 0.3 mM, IMP-like producing isolates): lowered the MICs of carbapenems for most IMP-like producing isolates
- tested isolates for which the MICs of imipenem and ertapenem were lowered (IMP-like producers; DMSA at 3 mM, IMP-like producers): 100%

SMILES: C[C@@H](O)[C@H]1C(=O)N2C(C(=O)O)=C(SCCN=CN)C[C@H]12 [IPM, imipenem]
- MIC (K.p. 6852): > 32 µg/mL
- MIC (K.p. TAW): 4 µg/mL
- MIC (K.p. ROUM): 32 µg/mL
- MIC (K.p. 0709124): 32 µg/mL
- MIC (E. cloacae 1008183): 8 µg/mL
- MIC (E. coli 0404018): 4 µg/mL
- MIC (E. coli JAP): 0.25 µg/mL
- MIC (E. coli 162): 32 µg/mL
- MIC (E. coli 405): 32 µg/mL
- MIC (E. coli DIH): 16 µg/mL
- MIC (E. coli IR5): 2 µg/mL
- MIC (E. coli COUP): 2 µg/mL
- MIC (E. coli BOUN): 2 µg/mL
- MIC (E. cloacae 396715): 4 µg/mL
- MIC (E. coli 1108013): 4 µg/mL
- MIC (E. coli MAD): 0.25 µg/mL
- MIC (E. cloacae 1008029): 16 µg/mL
- MIC (E. coli IBIS): 1 µg/mL
- MIC (E. cloacae 1008085): 2 µg/mL
- MIC (E. coli 1008077): 32 µg/mL
- MIC (E. cloacae 1008186): 16 µg/mL
- MIC (E. cloacae TAW): 4 µg/mL
